Measured values taken from patent US20240408223A1 (REGENERON PHARMACEUTICALS, INC., priority 2017, published 2024).
Converted amounts (≈) assume the structure as drawn. Like-named read-outs stand apart in the source and are kept apart here. *1 amine or outer side, *2 acyl side, *3 side chain or, on linkers, in order; H or OH if unused. Where a SMILES comes first, the peptide text is derived from it. [ ]: non-standard residue; d: D form. The star is where a group is joined. X4 = C[N+](C)(C)CCNC(=O)CCOCCOCCOCCOCCn1nnc2c1CCCCCC2OCC(=O)*; Dolaproine = CO[C@@H]([C@@H]1CCCN1)[C@@H](C)C(=O)O; Dil = CC[C@H](C)[C@H](NC)[C@@H](CC(=O)O)OC; PABC = O=C(OCc1ccc(N[*:1])cc1)[*:2]; DBCO = C1#Cc2ccccc2N(*)Cc2ccccc21; X1 = C[C@@H](N*)[C@@H](O)c1ccccc1; Cit = NC(=O)NCCC[C@H](N)C(=O)O; PEG4 = NCCOCCOCCOCCOCCC(=O)O; Suc = O=C(CCC(=O)[*:2])[*:1]; NMeV = CN[C@H](C(=O)O)C(C)C

Assays:
[1] = Solubility test in water, LCMS against standard curve
Experimental: The DMSO solution (1 mg/mL, 0.5 mL) was diluted with water (4.5 mL) to generate solution A (0.1 mg/mL, 5 mL, 0.5 mg). Solution A (0.1 mg/mL, 0.5 mL) was diluted with water (4.5 mL) to generate solution B (0.01 mg/mL, 5 mL, 0.05 mg). Solution B (0.01 mg/mL, 0.5 mL) was diluted with water (4.5 mL) to generate solution C (1 μg/mL, 5 mL, 5 μg). Solution C (1 μg/mL, 0.5 mL) was diluted with water (4.5 mL) to generate solution D (0.1 μg/mL, 5 mL, 0.5 μg). The testing sample (0.05 mg) was suspended in water (1 mL), and was sonicated for 5-30 min to dissolve the sample. If no clear solution was observed, the resulting suspension was centrifuged and the clear supernatant solution was collected for analysis. All the standard solutions A, B, C, D and sample solutions were tested using same method on the same LC-MS instrument. Solubility was assessed by LCMS and calculated based on a standard curve.

Human liver Cathepsin B = Human liver Cathepsin B (Homo sapiens, UniProt P07858); experiment: Cathepsin B cleavage assay of linker-payloads
Experimental: For the assay, the linker-payload stock solution (10 mM of linker-payload in DMSO) was added into a solution of 100 mM NaOAc, 10 mM dithiothreitol, at pH5 to obtain a 50 μM substrate solution. […] The Cathepsin B and substrate solution was mixed with and without 10 mM of a Cathepsin B inhibitor (CA074; APE Bio, Cat #A1926), and incubated at 37° C. for 4 hours. Following the 4 hour incubation, acetic acid and then acetonitrile were added to stop the reaction. The quenched samples then underwent centrifugation at 14,000 rpm. Aliquots of the resultant supernatants were then diluted with equal volume of water and analyzed by LC/MS to determine the amount of payload released.

[2] = pH stability in buffers, determined by LC-MS; type: physicochemical
Experimental: pH stability was assessed as follows. 0.1 mg of sample was dissolved into 0.2-0.3 mL of DMSO, and the resulting solution was added dropwise into different pH buffers (1 mL) while maintain clear solutions during testing time period. The samples were collected from several time points (e.g., over 72 hours), and pH stability was determined by LC-MS. pH buffer was prepared as follows: pH 8.0 sodium borate buffer: Add 9.534 g Sodium borate decahydrate, 1.461 g Sodium chloride, and 0.393 g DTPA to 900 mL distilled water, make sure all powers dissolve completely, then make final volume to 1 L by adding water. pH 7.4 sodium borate buffer: Add […], 9.534 g Sodium borate decahydrate, 1.461 g Sodium chloride, and 0.393 g DTPA to 900 mL distilled water, make sure all powers dissolve completely, then make final volume to 1 L by adding water. pH 5.0 succinate acid buffer: Add 10 mM succinate acid to 150 mL distilled water, and then change the pH to pH5.0 by adding 0.5M NaOH, then make final volume to 250 mL by adding water. pH 7.4 PBS buffer: commercially available. Stability was assessed at 72 hours by LCMS.

[3] = Solubility (mg/mL), in water, Table 3-1
[4] = pH7.4 and 8 buffer, RT, Table 3-1
[5] = Solubility (mg/mL), in water, Table 3
[6] = pH7.4 or 8 buffer, room temperature, Table 3

Row | SMILES | solubility [1, 3] | CapB cleavage rate (%) at 4 hrs (Human liver Cathepsin B; Table 1D) | pH Stability [2, 4] | solubility [1, 5] | CapB cleavage rate (%) at 4 hrs (Human liver Cathepsin B; Table 1C) | pH Stability [2, 6] | solubility [1]
1 | CC[C@H](C)[C@@H]([C@@H](CC(=O)N1CCC[C@H]1[C@H](OC)[C@@H](C)C(=O)N[C@H](C)[C@@H](O)c1ccccc1)OC)N(C)C(=O)[C@@H](NC(=O)[C@H](C(C)C)N(C)C(=O)OCc1ccc(NC(=O)[C@H](CCCNC(N)=O)NC(=O)[C@@H](NC(=O)[C@@H](CCCCNC(=O)COC2CCCCCc3c2nnn3CCOCCOCCOCCOCCOCCP(=O)(O)O)NC(=O)CCOCCOCCOCCOCCNC(=O)CCC(=O)N2Cc3ccccc3C#Cc3ccccc32)C(C)C)cc1)C(C)C (some centres unmarked) | 250 µg/mL (≈ 108 µM) | 50% | Y (stable in pH7.4 and 8 buffer at RT for more than 3 days) | – | – | – | –
2 | CCCC1O[C@@H]2C[C@H]3[C@@H]4C[C@H](F)C5=CC(=O)C=C[C@]5(C)[C@@]4(F)[C@@H](O)C[C@]3(C)[C@]2(C(=O)CNC(=O)OCc2ccc(NC(=O)[C@H](CCCNC(N)=O)NC(=O)[C@@H](NC(=O)[C@@H](CCCCNC(=O)COC3CCCCCc4c3nnn4CCOCCOCCOCCOCCC(=O)NCCS(=O)(=O)O)NC(=O)CCOCCOCCOCCOCCNC(=O)CCC(=O)N3Cc4ccccc4C#Cc4ccccc43)C(C)C)cc2)O1 (some centres unmarked) [1e] | > 10000 µg/mL | 79.6% | Y (stable in pH7.4 and 8 buffer at RT for more than 3 days) | > 10000 µg/mL | 79.6% | Y (stable in pH7.4 or 8 buffer at room temperature for more than 3 days) | –
3 | CCCC1O[C@@H]2C[C@H]3[C@@H]4C[C@H](F)C5=CC(=O)C=C[C@]5(C)[C@@]4(F)[C@@H](O)C[C@]3(C)[C@]2(C(=O)CNC(=O)OCc2ccc(NC(=O)[C@H](CCCNC(N)=O)NC(=O)[C@@H](NC(=O)[C@@H](CCCCNC(=O)COC3CCCCCc4c3nnn4CCN(CC(=O)NCCS(=O)(=O)O)CC(=O)NCCS(=O)(=O)O)NC(=O)CCOCCOCCOCCOCCNC(=O)CCC(=O)N3Cc4ccccc4C#Cc4ccccc43)C(C)C)cc2)O1 (some centres unmarked) [1f] | – | 63.0% | – | – | 63.0% | – | –
4 | CCCC1O[C@@H]2C[C@H]3[C@@H]4C[C@H](F)C5=CC(=O)C=C[C@]5(C)[C@@]4(F)[C@@H](O)C[C@]3(C)[C@]2(C(=O)COc2ccc(NC(=O)[C@H](C)NC(=O)[C@@H](NC(=O)[C@@H](CCCCNC(=O)COC3CCCCCc4c3nnn4CCOCCOCCOCCOCCC(=O)NCCS(=O)(=O)O)NC(=O)CCOCCOCCOCCOCCNC(=O)CCC(=O)N3Cc4ccccc4C#Cc4ccccc43)C(C)C)cc2)O1 (some centres unmarked) [1j] | > 10000 µg/mL | 30.8% | Y (stable in pH7.4 and 8 buffer at RT for more than 3 days) | > 10000 µg/mL | 30.8% | Y (stable in pH7.4 or 8 buffer at room temperature for more than 3 days) | –
5 | CCCC1O[C@@H]2C[C@H]3[C@@H]4C[C@H](F)C5=CC(=O)C=C[C@]5(C)[C@@]4(F)[C@@H](O)C[C@]3(C)[C@]2(C(=O)COc2ccc(NC(=O)[C@H](CCCNC(N)=O)NC(=O)[C@@H](NC(=O)[C@@H](CCCCNC(=O)COC3CCCCCc4c3nnn4CCOCCOCCOCCOCCC(=O)NCCS(=O)(=O)O)NC(=O)CCOCCOCCOCCOCCNC(=O)CCC(=O)N3Cc4ccccc4C#Cc4ccccc43)C(C)C)cc2)O1 (some centres unmarked) [1k] | > 1000 µg/mL | 31.0% | Y (stable in pH7.4 and 8 buffer at RT for more than 3 days) | > 1000 µg/mL | 31.0% | Y (stable in pH7.4 or 8 buffer at room temperature for more than 3 days) | –
6 | CC(C)[C@H](NC(=O)[C@@H](CCCCNC(=O)COC1CCCCCc2c1nnn2CCOCCOCCOCCOCCC(=O)NCCS(=O)(=O)O)NC(=O)CCOCCOCCOCCOCCNC(=O)CCC(=O)N1Cc2ccccc2C#Cc2ccccc21)C(=O)N[C@@H](C)C(=O)Nc1ccc2c(c1)[C@@]1(C)CCC[C@](C)(C(=O)NC(=O)[C@@]3(C)CCC[C@]4(C)c5cc(O)ccc5CC[C@@H]34)[C@@H]1CC2 (some centres unmarked) [1m] | – | 44.2% | – | – | 44.2% | – | –
7 | CC(C)[C@H](NC(=O)[C@@H](CCCCNC(=O)COC1CCCCCc2c1nnn2CCOCCOCCOCCOCCC(=O)NCCS(=O)(=O)O)NC(=O)CCOCCOCCOCCOCCNC(=O)CCC(=O)N1Cc2ccccc2C#Cc2ccccc21)C(=O)N[C@@H](CCCNC(N)=O)C(=O)Nc1ccc(COC(=O)N[C@@H](CO)C(=O)Nc2ccc3c(c2)[C@@]2(C)CCC[C@](C)(C(=O)NC(=O)[C@@]4(C)CCC[C@]5(C)c6cc(O)ccc6CC[C@@H]45)[C@@H]2CC3)cc1 (some centres unmarked) [1q] | – | 30.4% | Y (stable in pH7.4 and 8 buffer at RT for more than 3 days) | – | – | – | 170 µg/mL (≈ 75.7 µM)
8 | CCCC1O[C@@H]2C[C@H]3[C@@H]4C[C@H](F)C5=CC(=O)C=C[C@]5(C)[C@@]4(F)[C@@H](O)C[C@]3(C)[C@]2(C(=O)CNC(=O)OCc2ccc(NC(=O)[C@H](CCCNC(N)=O)NC(=O)[C@@H](NC(=O)CCOCCOCCOCCOCCNC(=O)CCC(=O)N3Cc4ccccc4C#Cc4ccccc43)C(C)C)cc2)O1 (some centres unmarked) [10a] | 20 µg/mL (≈ 14.2 µM) | 18.6% | Y (stable in pH7.4 and 8 buffer at RT for more than 3 days) | – | – | – | –
9 | CC(C)[C@H](NC(=O)CCOCCOCCOCCOCCNC(=O)CCC(=O)N1Cc2ccccc2C#Cc2ccccc21)C(=O)N[C@@H](C)C(=O)Nc1ccc2c(c1)[C@@]1(C)CCC[C@](C)(C(=O)NC(=O)[C@@]3(C)CCC[C@]4(C)c5cc(O)ccc5CC[C@@H]34)[C@@H]1CC2 [10b, 1-(4-{2-Azatricyclo[10.4.0.0^4,9]hexadeca-1(12),4(9),5,7,13,15-hexaen-10-yn-2-yl}-4-oxobutanamido)-N-[(1 S)-1-{[(1 S)-1-{[(4bS,8S,8aR)-8-{[(1 S,4aS,10aR)-6-hydroxy-1,4a-dimethyl-1,2,3,4,4a,9,10,10a-octahydrophenanthrene-1-carbonyl]carbamoyl}-4b,8-dimethyl-4b,5,6,7,8,8a,9,10-octahydrophenanthren-3-yl]carbamoyl}ethyl]carbamoyl}-2-methylpropyl]-3,6,9,12-tetraoxapentadecan-15-amide] | – | – | – | – | – | – | < 100 µg/mL
10 | CCCC1O[C@@H]2C[C@H]3[C@@H]4C[C@H](F)C5=CC(=O)C=C[C@]5(C)[C@@]4(F)[C@@H](O)C[C@]3(C)[C@]2(C(=O)COc2ccc(NC(=O)OCc3ccc(NC(=O)[C@H](CCCNC(N)=O)NC(=O)[C@@H](NC(=O)[C@@H](CCCCNC(=O)COC4CCCCCc5c4nnn5CCOCCOCCOCCOCCC(=O)NCC[N+](C)(C)C)NC(=O)CCOCCOCCOCCOCCNC(=O)OC[C@@H]4[C@@H]5CCC#CCC[C@@H]54)C(C)C)cc3)cc2)O1 (some centres unmarked) [IIIe] | > 10000 µg/mL | – | Y (stable in pH7.4 and 8 buffer at RT for more than 3 days) | – | – | – | –
11 | CC[C@H](C)[C@@H]([C@@H](CC(=O)N1CCC[C@H]1[C@H](OC)[C@@H](C)C(=O)N[C@H](C)[C@@H](O)c1ccccc1)OC)N(C)C(=O)[C@@H](NC(=O)[C@H](C(C)C)N(C)C(=O)OCc1ccc(NC(=O)[C@H](CCCNC(N)=O)NC(=O)[C@@H](NC(=O)[C@@H](CCCCNC(=O)COC2CCCCCc3c2nnn3CCOCCOCCOCCOCCC(=O)NCC[N+](C)(C)C)NC(=O)CCOCCOCCOCCOCCNC(=O)CCC(=O)N2Cc3ccccc3C#Cc3ccccc32)C(C)C)cc1)C(C)C (some centres unmarked) [Ib] ({DBCO-Suc-PEG4}-[dK](X4)V[Cit][PABC][NMeV]V[Dil][Dolaproine]-X1) | – | 65% | – | – | – | – | –
